Experiments:
[1] = tested on: wild-type HIV-IIIB strain; assay: Antiviral analysis EGFP: anti-HIV activity in MT4 LTR-EGFP cells; format: cell-based, HIV-1; conditions: fluorescence of HIV-infected cells reduced by 50%, three days after infection
Experimental: The compounds of the present invention were tested for anti-viral activity in a cellular assay, which was performed according to the following procedure.
The human T-cell line MT4 is engineered with Green Fluorescent Protein (GFP) and an HIV-specific promoter, HIV-1 long terminal repeat (LTR). This cell line is designated MT4 LTR-EGFP, and can be used for the in vitro evaluation of anti-HIV activity of investigational compounds. In HIV-1 infected cells, the Tat protein is produced which upregulates the LTR promotor and finally leads to stimulation of the GFP reporter production, allowing measuring ongoing HIV-infection fluorometrically.
(§1) Effective concentration values such as 50% effective concentration (EC50) can be determined and are usually expressed in μM. An EC50 value is defined as the concentration of test compound that reduces the fluorescence of HIV-infected cells by 50%. The 50% cytotoxic concentration (CC50 in μM) is defined as the concentration of test compound that reduces fluorescence of the mock-infected cells by 50%. The ratio of CC50 to EC50 is defined as the selectivity index (SI) and is an indication of the selectivity of the anti-HIV activity of the inhibitor. The ultimate monitoring of HIV-1 infection and cytotoxicity is done using a scanning microscope. Image analysis allows very sensitive detection of viral infection. Measurements are done before cell necrosis, which usually takes place about five days after infection, in particular measurements are performed three days after infection.
The following Table 5 lists EC50 values, expressed in micromole/liter, against wild-type HIV-IIIB strain, for a selected number of compounds of the invention.

MT4 CMV-EGFP cells = assay: Cytotoxicity in mock-infected MT4 CMV-EGFP cells; format: cell-based, human; conditions: fluorescence reduced by 50%
Source text: Analogously, MT4 cells are engineered with GFP and the constitutional cytomegalovirus (CMV) promotor. This cell line is designated MT4 CMV-EGFP, and can be used for the in vitro evaluation of cytotoxicity of investigational compounds. In this cell line, GFP levels are comparably to those of infected MT4 LTR-EGFP cells. Cytotoxic investigational compounds reduce GFP levels of mock-infected MT4 CMV-EGFP cells.
as §1

Row | Compound | EC50 [1] [µM] | CC50 (MT4 CMV-EGFP cells) [µM]
1 | Cc1ccc(-n2c(=O)c(C#N)cc3ccc(-c4cccc(CO)c4)cc32)cc1C#N [compound 156] | 2.58 | 64.9
2 | N#Cc1c(N)c2cccnc2n(-c2ccc([N+](=O)[O-])cc2)c1=O [compound 129] | 18.3 | > 32
3 | N#Cc1cc2ccc(-c3cc[nH]n3)cc2n(-c2ccc([N+](=O)[O-])cc2)c1=O [compound 46] | 0.16 | > 100
4 | N#Cc1cc2ccc(O)cc2n(-c2ccc(Cl)nc2)c1=O [compound 91] | > 32 | > 32
5 | CCN(CC)CCOc1ccc2cc(C#N)c(=O)n(-c3ccc([N+](=O)[O-])cc3)c2c1 [compound 59] | 12.9 | > 32
6 | COCCNc1ccc2cc(C#N)c(=O)n(-c3ccc([N+](=O)[O-])cc3)c2c1 [compound 17] | > 32 | > 32
7 | N#Cc1cc2ccccc2n(-c2ccc([N+](=O)[O-])cn2)c1=O [compound 3] | 4.8 | > 32
8 | N#Cc1cc2ccc(-c3ccncc3)cc2n(-c2ccc([N+](=O)[O-])cc2)c1=O [compound 29] | 0.92 | > 32
9 | N#Cc1cc2ccc(OCCN)cc2n(-c2ccc([N+](=O)[O-])cc2)c1=O [compound 53] | 1.14 | > 100
10 | CCN(CC)CCCOc1ccc2cc(C#N)c(=O)n(-c3ccc([N+](=O)[O-])cc3)c2c1 [compound 66] | 1.26 | > 32
11 | CC(=O)NCCCOc1ccc2cc(C#N)c(=O)n(-c3ccc([N+](=O)[O-])cc3)c2c1 [compound 69] | 10.2 | > 100
12 | CNCCNc1ccc2cc(C#N)c(=O)n(-c3ccc([N+](=O)[O-])cc3)c2c1 [compound 15] | 1.37 | > 32
13 | CC(=O)NCCNc1c(C#N)c(=O)n(-c2ccc([N+](=O)[O-])cc2)c2ccccc12 [compound 141] | 32.2 | > 100
14 | N#Cc1ccc(-n2c(=O)c(C#N)cc3ccccc32)cc1 [compound 2] | > 32 | > 32
15 | N#Cc1c(NCCCN)c2ccccc2n(-c2ccc([N+](=O)[O-])cc2)c1=O [compound 137] | 3.66 | 45.1
16 | N#Cc1cc2cc(OCCN3CCCC3)ccc2n(-c2ccc([N+](=O)[O-])cc2)c1=O [compound 89] | 1.57 | > 32
17 | N#Cc1cc2ccc(-c3ccc(C(N)=O)cc3)cc2n(-c2ccc([N+](=O)[O-])cc2)c1=O [compound 35] | 1.71 | 22.6
18 | N#Cc1c(N)c2ccc(Cl)cc2n(-c2cccc([N+](=O)[O-])c2)c1=O [compound 112] | 5.63 | > 100
19 | N#Cc1cc2ccc(-c3cscn3)cc2n(-c2ccc([N+](=O)[O-])cc2)c1=O [compound 81] | 0.15 | > 100
20 | N#Cc1cc2ccc(-c3ccoc3)cc2n(-c2ccc([N+](=O)[O-])cc2)c1=O [compound 41] | 0.28 | 38.1
21 | N#Cc1cc2ccc(OCCCN3CCOCC3)cc2n(-c2ccc([N+](=O)[O-])cc2)c1=O [compound 56] | 1.4 | > 32
22 | N#Cc1cc2ccc(OCCCNCCO)cc2n(-c2ccc([N+](=O)[O-])cc2)c1=O [compound 72] | 0.93 | > 32
23 | Cc1ccc2c(N)c(C#N)c(=O)n(-c3ccc([N+](=O)[O-])cc3)c2c1 [compound 115] | 0.68 | > 100
24 | N#Cc1cc2ccc(-c3cccs3)cc2n(-c2ccc([N+](=O)[O-])cc2)c1=O [compound 36] | 0.76 | > 100
25 | N#Cc1cc2ccc(-c3ccc(C(=O)O)s3)cc2n(-c2ccc([N+](=O)[O-])cc2)c1=O [compound 47] | > 100 | > 100

Row | Compound | EC50 [1] [µM] | CC50 (MT4 CMV-EGFP cells) [µM]
26 | N#Cc1cc2ccc(-c3cnccn3)cc2n(-c2ccc([N+](=O)[O-])cc2)c1=O [compound 78] | 1.32 | > 100
27 | N#Cc1cc2ccc(OCCCO)cc2n(-c2ccc([N+](=O)[O-])cc2)c1=O [compound 76] | 1.03 | > 100
28 | Cc1ccc(-n2c(=O)c(C#N)cc3ccc(-c4cccc(CN(C)C)c4)cc32)cc1C#N [compound 152] | 0.58 | 3.95
29 | N#Cc1c(NCCCn2ccnc2)c2ccccc2n(-c2ccc([N+](=O)[O-])cc2)c1=O [compound 140] | > 100 | > 100
30 | N#Cc1c(N)c2ccc(Cl)cc2n(-c2ccc(Cl)c(F)c2)c1=O [compound 105] | > 100 | > 100
31 | N#Cc1cc2cc3c(cc2n(-c2ccc([N+](=O)[O-])cc2)c1=O)OCO3 [compound 6] | 1.12 | > 100
32 | N#Cc1c(NCC2CCNC2)c2ccccc2n(-c2ccc([N+](=O)[O-])cc2)c1=O (centres unmarked) [compound 143] | 11.3 | > 100
33 | N#Cc1cc2ccc(NCCCN3CCCC3)cc2n(-c2ccc([N+](=O)[O-])cc2)c1=O [compound 21] | 0.21 | 69.5
34 | N#Cc1cc2cc(OCCN)ccc2n(-c2ccc([N+](=O)[O-])cc2)c1=O [compound 86] | 1.18 | > 32
35 | CN(C)CCCNc1c(C#N)c(=O)n(-c2ccc([N+](=O)[O-])cc2)c2ccccc12 [compound 139] | 2.16 | 59.5
36 | N#Cc1cc2ccc(NCCN3CCCC3)cc2n(-c2ccc([N+](=O)[O-])cc2)c1=O [compound 12] | 1.22 | > 100
37 | N#Cc1cc2ccc(OCCO)cc2n(-c2ccc([N+](=O)[O-])cc2)c1=O [compound 75] | 3.49 | > 32
38 | N#Cc1cc2ccc(-c3ccc(C(=O)O)cc3)cc2n(-c2ccc([N+](=O)[O-])cc2)c1=O [compound 49] | > 100 | > 100
39 | CN(C)CCCOc1ccc2c(c1)cc(C#N)c(=O)n2-c1ccc([N+](=O)[O-])cc1 [compound 85] | 1.15 | > 32
40 | CCNCCCOc1ccc2cc(C#N)c(=O)n(-c3ccc([N+](=O)[O-])cc3)c2c1 [compound 65] | 0.26 | 69
41 | N#Cc1cc2ccc(NCCN3CCOCC3)cc2n(-c2ccc([N+](=O)[O-])cc2)c1=O [compound 14] | 4.08 | > 32
42 | N#Cc1c(N)c2ccc(-c3cscn3)cc2n(-c2ccc([N+](=O)[O-])cc2)c1=O [compound 120] | 0.54 | > 100
43 | CN(C)CCOc1ccc2c(c1)cc(C#N)c(=O)n2-c1ccc([N+](=O)[O-])cc1 [compound 90] | 0.89 | > 32
44 | N#Cc1c(NCCCO)c2ccccc2n(-c2ccc([N+](=O)[O-])cc2)c1=O [compound 138] | 12 | > 100
45 | N#Cc1cc2ccc(NCCCN)cc2n(-c2ccc([N+](=O)[O-])cc2)c1=O [compound 19] | 0.91 | 30.6
46 | N#Cc1cc2ccc(-c3cn[nH]c3)cc2n(-c2ccc([N+](=O)[O-])cc2)c1=O [compound 48] | 0.71 | > 100
47 | N#Cc1cc2ccc(OCCCN3CCCCC3)cc2n(-c2ccc([N+](=O)[O-])cc2)c1=O [compound 67] | 1.17 | > 32
48 | N#Cc1cc2ccc(NCC3CCNC3)cc2n(-c2ccc([N+](=O)[O-])cc2)c1=O (centres unmarked) [compound 18] | 4.43 | > 32
49 | N#Cc1cc2ccc(OCCCN)cc2n(-c2ccc(Cl)nc2)c1=O [compound 92] | 8.55 | > 32

From US20100087649A1, “QUINOLINONE DERIVATIVES” (priority 2006, published 2010)
